What all share (assay type): biochemical
For assay [1], the target named is PKR(G332S) (Homo sapiens, UniProt P30613, G332S). Put plainly: Luminescence Assay Protocol (Kinase Glo Plus), PKR(G332S/with FBP). Particulars: PKRG332S, with FBP; for activation at 1.54 µM / C - AC50 LUM KGP FBP % Fold @ 1.54 μM mean: compound 1.54 μM; for activation at 1.54 µM: read-out: C - AC50 LUM KGP FBP % Fold @ 1.54 μM mean; for AC50: gmean, read-out: A - AC50 LUM KGP FBP AC50 μM gmean; for Emax / B - AC50 LUM KGP FBP MAX % FOLD mean: highest % fold increase at any concentration; for Emax: read-out: B - AC50 LUM KGP FBP MAX % FOLD mean. Put shortly:
(§1)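 Enzyme (wt 0.8 nM, R510Q 0.8 nM, G332S 10 nM) was preincubated 30 min at RT with compound and 100 μM PEP in Tris/KCl/MgCl2 buffer, then started with 100 μM ADP, plus 30 μM FBP for G332S. Luminescence was read after 45 min at RT. AC50 came from a four-parameter fit of % fold over DMSO across 42.5 μM–2.2 nM.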
A general note: In Kinase-Glo more light means more ATP remaining.

Assay [2] deals with PKR(wt) (Homo sapiens, UniProt P30613). The experiment in a line: Luminescence Assay Protocol (Kinase Glo Plus), PKR(Wt/without FBP). As to conditions: without FBP; for activation at 1.54 µM / I - AC50 LUM KGP woFBP % Fold @ 1.54 μM mean: compound 1.54 μM; for activation at 1.54 µM: read-out: I - AC50 LUM KGP woFBP % Fold @ 1.54 μM mean; for AC50: gmean, read-out: G - AC50 LUM KGP woFBP AC50 μM gmean; for Emax / H - AC50 LUM KGP woFBP MAX % FOLD mean: highest % fold increase at any concentration; for Emax: read-out: H - AC50 LUM KGP woFBP MAX % FOLD mean. The gist of the method: as §1

Assay [3] deals with PKR(R510Q) (Homo sapiens, UniProt P30613, R510Q). Put plainly: Luminescence Assay Protocol (Kinase Glo Plus), PKR(R510Q/without FBP). As to conditions: PKRR510Q, without FBP; for activation at 1.54 µM / F - AC50 LUM KGP woFBP % Fold @ 1.54 μM mean: compound 1.54 μM; for activation at 1.54 µM: read-out: F - AC50 LUM KGP woFBP % Fold @ 1.54 μM mean; for AC50: gmean, read-out: D - AC50 LUM KGP woFBP AC50 μM gmean; for Emax / E - AC50 LUM KGP woFBP MAX % FOLD mean: highest % fold increase at any concentration; for Emax: read-out: E - AC50 LUM KGP woFBP MAX % FOLD mean. Put shortly: as §1

Each structure is given as a SMILES string.

These results are taken from US11649242B2, “Pyrrolopyrrole compositions as pyruvate kinase (PKR) activators” (FORMA Therapeutics, Inc., priority 2017, dated 2023).

As a reminder, the AC50 is the concentration giving half of the maximal activity seen.

Chain of PKR(R510Q) (P30613 whole entry R510Q): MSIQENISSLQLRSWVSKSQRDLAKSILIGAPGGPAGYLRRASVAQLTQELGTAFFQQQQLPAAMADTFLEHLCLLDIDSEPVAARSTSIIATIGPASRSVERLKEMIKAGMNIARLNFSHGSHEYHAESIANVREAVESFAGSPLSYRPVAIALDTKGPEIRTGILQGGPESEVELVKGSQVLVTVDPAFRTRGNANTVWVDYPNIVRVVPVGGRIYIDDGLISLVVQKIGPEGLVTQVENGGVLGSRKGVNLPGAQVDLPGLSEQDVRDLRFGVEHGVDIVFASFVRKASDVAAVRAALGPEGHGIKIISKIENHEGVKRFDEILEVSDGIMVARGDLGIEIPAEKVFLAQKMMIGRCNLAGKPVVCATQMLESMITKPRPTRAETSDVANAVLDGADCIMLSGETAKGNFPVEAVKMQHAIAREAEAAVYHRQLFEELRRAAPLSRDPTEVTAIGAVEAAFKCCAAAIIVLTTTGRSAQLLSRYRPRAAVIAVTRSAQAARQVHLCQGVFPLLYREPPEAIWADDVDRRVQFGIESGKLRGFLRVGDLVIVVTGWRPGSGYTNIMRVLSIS
Chain of PKR(wt) (P30613 whole entry): as the sequence (P30613 whole entry R510Q) above, with Q510R counted along it
Chain of PKR(G332S) (P30613 whole entry G332S): as the sequence (P30613 whole entry R510Q) above, with G332S, Q510R counted along it

On to `O=C([C@H](CO)c1ccccc1)N1CC2=C(C1)CN(S(=O)(=O)c1ccccn1)C2` [Example 51, (2S)-3-hydroxy-2-phenyl-1-[5-(pyridine-2-sulfonyl)-1H,2H,3H,4H,5H,6H-pyrrolo[3,4-c]pyrrol-2-yl]propan-1-one], for which, in assay [1], the activation at 1.54 µM is 75 to 250%, the AC50 lay within 0.1 to 1 µM and the Emax lay within 75 to 250%. For the same molecule, in assay [2], the activation at 1.54 µM was in the range of 250 to 500%, the AC50 is not above 0.1 µM and the Emax lay within 250 to 500%. For the same molecule, in assay [3], the activation at 1.54 µM lay within 250 to 500%, the AC50 was not above 0.1 µM and the Emax was 250 to 500%.
As for `CN1CCOc2ccc(S(=O)(=O)N3CC4=C(CN(C(=O)C(CO)c5ccccc5)C4)C3)cc21` (centres unmarked) [Example 46, 3-hydroxy-1-(5-((4-methyl-3,4-dihydro-2H-benzo[b][1,4]oxazin-6-yl)sulfonyl)-3,4,5,6-tetrahydropyrrolo[3,4-c]pyrrol-2(1H)-yl)-2-phenylpropan-1-one], in assay [1], the activation at 1.54 µM was 75 to 250%, the AC50 is more than 40 µM and the Emax was in the range of 75 to 250%. In assay [2], the activation at 1.54 µM lay in the range of 75 to 250%, the concentration at half-maximal activity (AC50) is not above 0.1 µM and the Emax fell in the range of 75 to 250%. In assay [3], the activation at 1.54 µM was 75 to 250%, the AC50 is more than 40 µM and the Emax was 75 to 250%.
Consider `CN1CCOc2ccc(S(=O)(=O)N3CC4=C(CN(C(=O)C5CCOC5)C4)C3)cc21` (centres unmarked) [Example 47, (5-((4-methyl-3,4-dihydro-2H-benzo[b][1,4]oxazin-6-yl)sulfonyl)-3,4,5,6-tetrahydropyrrolo[3,4-c]pyrrol-2(1H)-yl)(tetrahydrofuran-3-yl)methanone], for which the activation at 1.54 µM in assay [1], in assay [2] and in assay [3] was 75 to 250% throughout. Besides, the results for the AC50 in assay [1], in assay [2] and in assay [3] were more than 40 µM, 0.1 to 1 µM and 1 to 40 µM, respectively. Moreover, the Emax in assay [1] was in the range of 75 to 250%; in assay [2], 75 to 250%; in assay [3], 250 to 500%.
Take `O=C(C1CCCOC1)N1CC2=C(C1)CN(S(=O)(=O)c1ccccn1)C2` (single isomer, unassigned) [Example 44, (R or S)-(5-(pyridin-2-ylsulfonyl)-3,4,5,6-tetrahydropyrrolo[3,4-c]pyrrol-2(1H)-yl)(tetrahydro-2H-pyran-3-yl)methanone]: in assay [1], the activation at 1.54 µM fell in the range of 75 to 250%, the AC50 is 1 to 40 µM and the Emax was 75 to 250%. Moreover, in assay [2], the activation at 1.54 µM is 75 to 250%; the AC50 is 1 to 40 µM; the “H - AC50 LUM KGP woFBP MAX % FOLD mean” value was “++ (>75% and ≤250% (++))”. In assay [3], the activation at 1.54 µM lay within 75 to 250%; the AC50 was more than 40 µM; the “E - AC50 LUM KGP woFBP MAX % FOLD mean” value is “++ (>75% and ≤250% (++))”.
For the molecule `O=C(C1CCCOC1)N1CC2=C(C1)CN(S(=O)(=O)c1cnc3c(c1)OCCO3)C2` (single isomer, unassigned) [Example 6, (S or R)-(5-((2,3-dihydro-[1,4]dioxino[2,3-b]pyridin-7-yl)sulfonyl)-3,4,5,6-tetrahydropyrrolo[3,4-c]pyrrol-2(1H)-yl)(tetrahydro-2H-pyran-3-yl)methanone], the values for the AC50 in assay [1], in assay [2] and in assay [3] were more than 40 µM, 1 to 40 µM and more than 40 µM, respectively. Further, the “I - AC50 LUM KGP woFBP % Fold @ 1.54 μM mean” value in assay [2] is “++ (>75% and ≤250% (++))”. In addition, the “H - AC50 LUM KGP woFBP MAX % FOLD mean” value in assay [2] is “++ (>75% and ≤250% (++))”.
As to `O=C(C1CCCOC1)N1CC2=C(C1)CN(S(=O)(=O)c1ccc3c(c1)NCCO3)C2` (single isomer, unassigned) [Example 34, (R or S)-(5-((3,4-dihydro-2H-benzo[b][1,4]oxazin-6-yl)sulfonyl)-3,4,5,6-tetrahydropyrrolo[3,4-c]pyrrol-2(1H)-yl)(tetrahydro-2H-pyran-3-yl)methanone], in assay [1], the “C - AC50 LUM KGP FBP % Fold @ 1.54 μM mean” value was “++ (>75% and ≤250% (++))”; the AC50 was in the range of 0.1 to 1 µM; the “B - AC50 LUM KGP FBP MAX % FOLD mean” value is “++ (>75% and ≤250% (++))”. Also, in assay [2], the “I - AC50 LUM KGP woFBP % Fold @ 1.54 μM mean” value was “++ (>75% and ≤250% (++))”; the AC50 is not above 0.1 µM; the “H - AC50 LUM KGP woFBP MAX % FOLD mean” value is “++ (>75% and ≤250% (++))”. For the same molecule, in assay [3], the “F - AC50 LUM KGP woFBP % Fold @ 1.54 μM mean” value was “+++ (>250% and ≤500% (+++))”; the AC50 is not above 0.1 µM; the “E - AC50 LUM KGP woFBP MAX % FOLD mean” value is “+++ (>250% and ≤500% (+++))”.
As for `O=C([C@H](CO)c1ccccc1)N1CC2=C(C1)CN(S(=O)(=O)c1ccc3ncsc3c1)C2` [Example 29, (S)-1-(5-(benzo[d]thiazol-6-ylsulfonyl)-3,4,5,6-tetrahydropyrrolo[3,4-c]pyrrol-2(1H)-yl)-3-hydroxy-2-phenylpropan-1-one], in assay [1], the activation at 1.54 µM was in the range of 75 to 250%, the AC50 was not above 0.1 µM and the Emax lay in the range of 75 to 250%. For the same molecule, in assay [2], the activation at 1.54 µM lay within 250 to 500%, the AC50 was not above 0.1 µM and the Emax is 250 to 500%. In assay [3], the activation at 1.54 µM lay within 250 to 500%, the AC50 was not above 0.1 µM and the Emax fell in the range of 250 to 500%.
As for `O=C([C@H](CO)c1ccccc1)N1CC2=C(C1)CN(S(=O)(=O)c1cccnc1)C2` [Example 50, (2S)-3-hydroxy-2-phenyl-1-[5-(pyridine-3-sulfonyl)-1H,2H,3H,4H,5H,6H-pyrrolo[3,4-c]pyrrol-2-yl]propan-1-one], the activation at 1.54 µM was in the range of 75 to 250% in assay [1], 75 to 250% in assay [2] and 250 to 500% in assay [3]. Further, the AC50 in assay [1], in assay [2] and in assay [3] was 0.1 to 1 µM in each case. The Emax in assay [1] lay within 75 to 250%; in assay [2], 250 to 500%; in assay [3] it was 250 to 500%.
As for `O=C([C@H](CO)c1ccccc1)N1CC2=C(C1)CN(S(=O)(=O)c1ccc(OC(F)F)cc1)C2` [Example 31, (S)-1-(5-((4-(difluoromethoxy)phenyl)sulfonyl)-3,4,5,6-tetrahydropyrrolo[3,4-c]pyrrol-2(1H)-yl)-3-hydroxy-2-phenylpropan-1-one], the results for the activation at 1.54 µM in assay [1], in assay [2] and in assay [3] were 75 to 250%, 250 to 500% and 250 to 500%, respectively. Also, the half-maximal activity concentration (AC50) in assay [1], in assay [2] and in assay [3] was not above 0.1 µM in each case. The Emax in assay [1] was 75 to 250%; in assay [2], 250 to 500%; in assay [3] it was 250 to 500%.
Consider `O=C([C@@H](CO)c1ccccc1)N1CC2=C(C1)CN(S(=O)(=O)c1cnc3c(c1)OCCO3)C2` (single isomer, unassigned) [Example 2], for which the activation at 1.54 µM in assay [1], in assay [2] and in assay [3] was 75 to 250% throughout. Moreover, the Emax lay in the range of 75 to 250% in assay [1], 75 to 250% in assay [2] and 250 to 500% in assay [3].
`O=C(C(CO)c1ccccc1)N1CC2=C(C1)CN(S(=O)(=O)c1ccc(OC(F)F)cc1)C2` (centres unmarked) [Example 49, 1-(5-((4-(difluoromethoxy)phenyl)sulfonyl)-3,4,5,6-tetrahydropyrrolo[3,4-c]pyrrol-2(1H)-yl)-3-hydroxy-2-phenylpropan-1-one]: in assay [1], the activation at 1.54 µM fell in the range of 75 to 250%, the AC50 was not above 0.1 µM and the Emax was 75 to 250%. Also, in assay [2], the activation at 1.54 µM lay within 250 to 500%, the AC50 was not above 0.1 µM and the Emax fell in the range of 250 to 500%. In assay [3], the activation at 1.54 µM lay within 250 to 500%, the AC50 is not above 0.1 µM and the Emax lay within 250 to 500%.
Take `O=C(C1CCCOC1)N1CC2=C(C1)CN(S(=O)(=O)c1ccccn1)C2` (single isomer, unassigned) [Example 45, (S or R)-(5-(pyridin-2-ylsulfonyl)-3,4,5,6-tetrahydropyrrolo[3,4-c]pyrrol-2(1H)-yl)(tetrahydro-2H-pyran-3-yl)methanone]: in assay [1], the “C - AC50 LUM KGP FBP % Fold @ 1.54 μM mean” value is “++ (>75% and ≤250% (++))”; the AC50 was 0.1 to 1 µM; the “B - AC50 LUM KGP FBP MAX % FOLD mean” value is “++ (>75% and ≤250% (++))”. In assay [2], the “I - AC50 LUM KGP woFBP % Fold @ 1.54 μM mean” value is “++ (>75% and ≤250% (++))”; the AC50 was in the range of 0.1 to 1 µM; the “H - AC50 LUM KGP woFBP MAX % FOLD mean” value was “+++ (>250% and ≤500% (+++))”. Further, in assay [3], the “F - AC50 LUM KGP woFBP % Fold @ 1.54 μM mean” value was “++ (>75% and ≤250% (++))”; the half-maximal activity concentration (AC50) lay in the range of 1 to 40 µM; the “E - AC50 LUM KGP woFBP MAX % FOLD mean” value was “+++ (>250% and ≤500% (+++))”.
